{"source": "ChEMBL document CHEMBL4130359", "about": "“Indazole-based ligands for estrogen-related receptor α as potential anti-diabetic agents” (Eur J Med Chem, 2017)", "key": {"Rattus norvegicus [1]": {"tested_on": "Rattus norvegicus", "assay": "Toxicity in Zucker rat sub-chronic fa/fa prediabetic model assessed as food intake at 3 mg/kg, po qd for 29 days measured on day 1 to 29 during compound dosing (reference value: 969 +/- 18 g)", "format": "organism-based", "conditions": "in vivo, 696 h"}, "Rattus norvegicus [2]": {"tested_on": "Rattus norvegicus", "assay": "Toxicity in […] chronic ob/ob model assessed as epididymal white adipose tissue weight at 3 mg/kg, po qd for 31 days measured on day 32 (reference value: 3.92 +/- 0.14 g)", "format": "organism-based", "conditions": "in vivo, 744 h"}, "[3]": {"assay": "Cmax in Zucker rat sub-chronic fa/fa prediabetic model at 10 mg/kg, po qd measured on day 1 post dose", "format": "ADME, organism-based", "design": "dose 10 mg/kg, route oral", "conditions": "in vivo"}, "Rattus norvegicus [4]": {"tested_on": "Rattus norvegicus", "assay": "Effect on IL1RN gene expression in epididymal white adipose tissue of Zucker rat sub-chronic fa/fa prediabetic model at 10 mg/kg, po qd for 15 days by microarray analysis relative to control", "format": "functional"}, "Rattus norvegicus [5]": {"tested_on": "Rattus norvegicus", "assay": "Antidiabetic activity in Zucker rat sub-chronic fa/fa prediabetic model assessed as fasting blood insulin level at 50 mg/kg, po qd for 31 days measured on day 29 post dose (reference value: 8.5 +/- 1.4 ug/L)", "format": "functional"}, "Rattus norvegicus [6]": {"tested_on": "Rattus norvegicus", "assay": "Toxicity in Zucker rat sub-chronic fa/fa prediabetic model assessed as serum cholesterol level at 1 mg/kg, po qd for 31 days measured on day 32 (reference value: 295 +/- 91 mg/dl)", "format": "organism-based", "conditions": "in vivo, 744 h"}, "Rattus norvegicus [7]": {"tested_on": "Rattus norvegicus", "assay": "Antidiabetic activity in […] chronic ob/ob model assessed as increase in plasma adiponectin level administered po qd for 31 days measured on day 32 by ELISA", "format": "functional, organism-based"}, "[8]": {"assay": "Volume of distribution at steady state in CD-1 mouse at 5 mg/kg, iv by LC-MS analysis", "format": "ADME, organism-based", "conditions": "in vivo, read-out: Vdss"}, "[9]": {"assay": "Cmax in Zucker rat sub-chronic fa/fa prediabetic model at 1 mg/kg, po qd for 26 days measured on day 26 post last dose", "format": "ADME, organism-based", "design": "dose 1 mg/kg, route oral", "conditions": "in vivo"}, "[10]": {"assay": "Terminal half life in Sprague-Dawley rat at 10 mg/kg administered via oral gavage by LC-MS analysis", "format": "ADME, organism-based", "conditions": "in vivo, read-out: beta t1/2 (converted)"}, "Rattus norvegicus [11]": {"tested_on": "Rattus norvegicus", "assay": "Effect on NR1H2 gene expression in epididymal white adipose tissue of Zucker rat sub-chronic fa/fa prediabetic model at 10 mg/kg, po qd for 15 days by microarray analysis relative to control", "format": "functional"}, "Rattus norvegicus [12]": {"tested_on": "Rattus norvegicus", "assay": "Toxicity in […] model assessed as serum BUN level at 3 mg/kg, po qd for 31 days measured on day 32 (reference value: 28.3 +/- […])", "format": "organism-based", "conditions": "in vivo, 744 h"}, "Rattus norvegicus [13]": {"tested_on": "Rattus norvegicus", "assay": "Effect on DLST gene expression in epididymal white adipose tissue of Zucker rat sub-chronic fa/fa prediabetic model at 10 mg/kg, po qd for 15 days by microarray analysis relative to control", "format": "functional"}, "Rattus norvegicus [14]": {"tested_on": "Rattus norvegicus", "assay": "Toxicity in […] model assessed as serum BUN level at 10 mg/kg, po qd for 31 days measured on day 32 (reference value: 28.3 +/- […])", "format": "organism-based", "conditions": "in vivo, 744 h"}, "Rattus norvegicus [15]": {"tested_on": "Rattus norvegicus", "assay": "Effect on NDUFA12 gene expression in epididymal white adipose tissue of Zucker rat sub-chronic fa/fa prediabetic model at 10 mg/kg, po qd for 15 days by microarray analysis relative to control", "format": "functional"}, "Rattus norvegicus [16]": {"tested_on": "Rattus norvegicus", "assay": "Toxicity in […] model assessed as liver weight at 3 mg/kg, po qd for 31 days measured on day 32 (reference value: 2.77 +/- 0.16 g)", "format": "organism-based", "conditions": "in vivo, 744 h"}, "Rattus norvegicus [17]": {"tested_on": "Rattus norvegicus", "assay": "Toxicity in Zucker rat sub-chronic fa/fa prediabetic model assessed as serum cholesterol level at 50 mg/kg, po qd for 31 days measured on day 32 (reference value: 295 +/- 91 mg/dl)", "format": "organism-based", "conditions": "in vivo, 744 h"}, "Rattus norvegicus [18]": {"tested_on": "Rattus norvegicus", "assay": "Effect on SYNJ2 gene expression in epididymal white adipose tissue of Zucker rat sub-chronic fa/fa prediabetic model at 10 mg/kg, po qd for 15 days by microarray analysis relative to control", "format": "functional"}, "[19]": {"assay": "AUC (0 to 24 hrs) in […] model at 3 mg/kg, po qd measured on day 1 post dose", "format": "ADME, organism-based", "design": "dose 3 mg/kg, time < 24 hr, route oral", "conditions": "in vivo"}, "Cavia porcellus": {"organism": "Cavia porcellus", "assay": "Inhibition of veratridine binding to Dunkin Hartley guinea pig atria sodium channel site 2 (unknown origin) at 10 uM relative to control"}, "Rattus norvegicus [20]": {"tested_on": "Rattus norvegicus", "assay": "Effect on UGP2 gene expression in epididymal white adipose tissue of Zucker rat sub-chronic fa/fa prediabetic model at 10 mg/kg, po qd for 15 days by microarray analysis relative to control", "format": "functional"}, "[21]": {"assay": "Tmax in CD-1 mouse at 20 mg/kg administered via oral gavage by LC-MS analysis", "format": "ADME, organism-based", "conditions": "in vivo"}, "[22]": {"assay": "Half life in Sprague-Dawley rat at 2 mg/kg, iv by LC-MS analysis", "format": "ADME, organism-based", "conditions": "in vivo"}, "[23]": {"assay": "Cmax in […] at 15 mg/kg administered via oral gavage by LC-MS analysis", "format": "ADME, organism-based", "design": "dose 15 mg/kg, route oral", "conditions": "in vivo"}, "Rattus norvegicus [24]": {"tested_on": "Rattus norvegicus", "assay": "Antidiabetic activity in Zucker rat sub-chronic fa/fa prediabetic model assessed as blood insulin AUC (0 to 120 min) at 3 mg/kg, po qd for 31 days measured on day 29 post dose (reference value: 1503 +/- 160 ug.min/L)", "format": "functional, organism-based", "design": "dose 3 mg/kg, time < 2 hr"}, "Rattus norvegicus [25]": {"tested_on": "Rattus norvegicus", "assay": "Antidiabetic activity in Zucker rat sub-chronic fa/fa prediabetic model assessed as serum adiponectin level at 3 mg/kg, po qd for 4 days by ELISA (reference value: 9.1%)", "format": "functional"}, "[26]": {"target": "Peroxisome proliferator-activated receptor alpha (Homo sapiens, UniProt Q07869)", "sequence (Q07869 whole entry, the tested form may be a part)": "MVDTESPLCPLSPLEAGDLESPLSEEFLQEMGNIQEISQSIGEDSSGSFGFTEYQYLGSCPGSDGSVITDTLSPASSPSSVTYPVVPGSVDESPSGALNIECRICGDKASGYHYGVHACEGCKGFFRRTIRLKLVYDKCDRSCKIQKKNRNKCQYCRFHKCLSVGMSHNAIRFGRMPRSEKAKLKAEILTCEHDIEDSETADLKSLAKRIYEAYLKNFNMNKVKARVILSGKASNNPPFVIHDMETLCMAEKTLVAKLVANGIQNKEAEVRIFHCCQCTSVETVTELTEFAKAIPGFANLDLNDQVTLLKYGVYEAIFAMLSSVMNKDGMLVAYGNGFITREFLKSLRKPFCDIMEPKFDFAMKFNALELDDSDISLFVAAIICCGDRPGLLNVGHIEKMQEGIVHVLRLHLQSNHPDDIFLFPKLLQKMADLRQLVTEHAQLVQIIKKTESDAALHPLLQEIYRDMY", "assay": "Agonist activity at recombinant GST-tagged human PPARalpha LBD assessed as fluorescein-labeled coactivator peptide recruitment preincubated with enzyme followed by coactivator addition by LanthaScreen TR-FRET assay"}, "[27]": {"target": "Sodium channel protein type 2 subunit alpha (Homo sapiens) (UniProt Q99250)", "sequence (Q99250 whole entry, looked up)": "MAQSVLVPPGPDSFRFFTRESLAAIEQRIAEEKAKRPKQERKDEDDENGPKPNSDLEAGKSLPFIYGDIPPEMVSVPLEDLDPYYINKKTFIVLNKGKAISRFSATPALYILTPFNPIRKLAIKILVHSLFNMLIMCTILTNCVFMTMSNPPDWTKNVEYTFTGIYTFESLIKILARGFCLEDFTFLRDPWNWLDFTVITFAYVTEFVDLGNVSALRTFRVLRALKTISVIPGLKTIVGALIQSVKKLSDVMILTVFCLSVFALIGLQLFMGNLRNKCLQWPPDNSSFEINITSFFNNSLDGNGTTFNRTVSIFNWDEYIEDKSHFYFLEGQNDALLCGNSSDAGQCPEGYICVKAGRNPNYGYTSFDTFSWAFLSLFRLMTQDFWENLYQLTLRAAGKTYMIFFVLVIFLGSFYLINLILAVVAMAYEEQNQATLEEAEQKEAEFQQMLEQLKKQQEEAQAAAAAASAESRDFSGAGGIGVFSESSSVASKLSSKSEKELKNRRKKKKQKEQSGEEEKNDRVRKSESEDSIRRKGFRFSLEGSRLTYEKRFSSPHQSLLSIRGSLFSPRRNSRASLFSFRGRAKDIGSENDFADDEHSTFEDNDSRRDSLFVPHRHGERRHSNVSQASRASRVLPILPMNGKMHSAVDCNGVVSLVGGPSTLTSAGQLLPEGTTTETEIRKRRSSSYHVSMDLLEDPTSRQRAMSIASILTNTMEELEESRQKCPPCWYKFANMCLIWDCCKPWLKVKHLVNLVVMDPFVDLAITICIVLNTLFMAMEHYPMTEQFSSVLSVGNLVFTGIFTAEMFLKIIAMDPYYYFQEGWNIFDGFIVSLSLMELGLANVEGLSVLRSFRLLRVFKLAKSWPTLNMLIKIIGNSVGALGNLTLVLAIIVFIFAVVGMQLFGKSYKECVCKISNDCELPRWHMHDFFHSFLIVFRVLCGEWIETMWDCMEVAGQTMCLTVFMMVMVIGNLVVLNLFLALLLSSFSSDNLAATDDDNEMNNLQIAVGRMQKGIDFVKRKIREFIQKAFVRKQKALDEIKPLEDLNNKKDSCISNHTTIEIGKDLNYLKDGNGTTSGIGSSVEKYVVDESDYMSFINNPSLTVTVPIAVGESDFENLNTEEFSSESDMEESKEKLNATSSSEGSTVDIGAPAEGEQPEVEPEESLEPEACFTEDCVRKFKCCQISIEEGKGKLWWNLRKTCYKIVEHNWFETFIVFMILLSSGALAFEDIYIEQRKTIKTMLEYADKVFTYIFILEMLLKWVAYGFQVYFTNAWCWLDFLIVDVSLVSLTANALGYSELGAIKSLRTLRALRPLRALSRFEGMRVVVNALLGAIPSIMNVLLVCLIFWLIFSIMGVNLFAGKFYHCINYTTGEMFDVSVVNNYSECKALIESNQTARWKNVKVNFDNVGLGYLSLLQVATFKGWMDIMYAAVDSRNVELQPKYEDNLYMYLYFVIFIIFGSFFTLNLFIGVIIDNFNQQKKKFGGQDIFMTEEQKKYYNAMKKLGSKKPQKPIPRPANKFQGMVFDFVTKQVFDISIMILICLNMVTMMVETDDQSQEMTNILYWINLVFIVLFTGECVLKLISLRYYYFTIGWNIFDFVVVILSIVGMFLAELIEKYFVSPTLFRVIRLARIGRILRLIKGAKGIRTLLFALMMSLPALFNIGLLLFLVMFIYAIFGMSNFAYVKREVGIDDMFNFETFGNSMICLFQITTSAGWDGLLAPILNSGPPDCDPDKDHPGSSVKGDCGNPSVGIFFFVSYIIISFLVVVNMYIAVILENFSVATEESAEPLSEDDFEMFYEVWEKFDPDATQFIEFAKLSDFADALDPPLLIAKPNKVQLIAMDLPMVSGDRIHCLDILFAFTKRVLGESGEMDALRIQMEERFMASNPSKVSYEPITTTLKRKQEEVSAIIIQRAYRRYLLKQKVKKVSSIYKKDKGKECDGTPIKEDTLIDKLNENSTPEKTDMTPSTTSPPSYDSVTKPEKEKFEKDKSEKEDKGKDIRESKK", "assay": "Activity at human Nav1.2 expressed in CHOK1 cells assessed as effect on channel current up to 10 uM by patch clamp method", "format": "cell-based"}, "Rattus norvegicus [28]": {"tested_on": "Rattus norvegicus", "assay": "Effect on ECI2 gene expression in epididymal white adipose tissue of Zucker rat sub-chronic fa/fa prediabetic model at 10 mg/kg, po qd for 15 days by microarray analysis relative to control", "format": "functional"}, "Estrogen receptor": {"target": "Estrogen receptor (Homo sapiens, UniProt P03372)", "sequence (P03372 whole entry)": "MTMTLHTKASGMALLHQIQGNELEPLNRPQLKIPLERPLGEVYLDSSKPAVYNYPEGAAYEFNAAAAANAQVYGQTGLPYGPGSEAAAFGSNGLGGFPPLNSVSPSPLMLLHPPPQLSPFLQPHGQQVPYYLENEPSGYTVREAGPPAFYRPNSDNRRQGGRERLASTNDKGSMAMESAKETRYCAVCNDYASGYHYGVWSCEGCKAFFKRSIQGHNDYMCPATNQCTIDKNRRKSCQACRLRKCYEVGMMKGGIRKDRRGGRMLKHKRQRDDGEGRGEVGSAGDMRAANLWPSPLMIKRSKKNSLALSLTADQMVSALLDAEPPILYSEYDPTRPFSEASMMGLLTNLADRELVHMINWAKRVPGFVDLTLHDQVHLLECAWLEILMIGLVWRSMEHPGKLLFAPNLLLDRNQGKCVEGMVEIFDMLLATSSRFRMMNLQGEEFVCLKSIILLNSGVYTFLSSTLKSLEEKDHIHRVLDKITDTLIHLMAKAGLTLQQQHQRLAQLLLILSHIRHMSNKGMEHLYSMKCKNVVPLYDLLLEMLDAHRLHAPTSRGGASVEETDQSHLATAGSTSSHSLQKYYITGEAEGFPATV", "assay": "Inhibition of fluormone ES2 green binding to recombinant full length human ERalpha expressed in insect cells by fluorescence polarization assay"}, "Rattus norvegicus [29]": {"tested_on": "Rattus norvegicus", "assay": "Antidiabetic activity in […] model assessed as HbA1C level at 3 mg/kg, po qd for 31 days measured on day 32 post dose (reference value: 5.9 +/- 0.18%)", "format": "functional"}, "Rattus norvegicus [30]": {"tested_on": "Rattus norvegicus", "assay": "Toxicity in Zucker rat sub-chronic fa/fa prediabetic model assessed as serum BUN level at 3 mg/kg, po qd for 31 days measured on day 32 (reference value: 28.3 +/- […])", "format": "organism-based", "conditions": "in vivo, 744 h"}, "Rattus norvegicus [31]": {"tested_on": "Rattus norvegicus", "assay": "Effect on PCK1 gene expression in epididymal white adipose tissue of Zucker rat sub-chronic fa/fa prediabetic model at 10 mg/kg, po qd for 15 days by microarray analysis relative to control", "format": "functional"}, "Rattus norvegicus [32]": {"tested_on": "Rattus norvegicus", "assay": "Toxicity in […] model assessed as serum ALT level at 10 mg/kg, po qd for 31 days measured on day 32 (reference value: 127 +/- 9 U/L)", "format": "organism-based", "conditions": "in vivo, 744 h"}}, "note": "The source made the active and inactive calls. No cut-off for these calls is given here."}
{"smiles": "CN1CC[C@@H](N2C(=O)S/C(=C\\c3ccc4c(cnn4Cc4ccc(Cl)cc4C(F)(F)F)c3)C2=O)[C@H](F)C1", "values": [{"measurement": "Activity", "setting": "Rattus norvegicus [1]", "result": 1067, "unit": "g"}, {"measurement": "Activity", "setting": "Rattus norvegicus [2]", "result": 3.44, "unit": "g"}, {"measurement": "Cmax", "setting": "[3]", "result": 1570, "unit": "ng/mL"}, {"measurement": "fold change (FC)", "setting": "Rattus norvegicus [4]", "result": -1.209}, {"measurement": "Activity", "setting": "Rattus norvegicus [5]", "result": 0.7, "unit": "µg/L"}, {"measurement": "Activity", "setting": "Rattus norvegicus [6]", "result": 328, "unit": "mg/dL"}, {"measurement": "Activity", "setting": "Rattus norvegicus [7]", "result": "Dose-dependent effect"}, {"measurement": "Vd", "setting": "[8]", "result": 6.89, "unit": "L/kg"}, {"measurement": "Cmax", "setting": "[9]", "result": 316, "unit": "ng/mL"}, {"measurement": "half-life", "setting": "[10]", "result": 4.7, "unit": "h"}, {"measurement": "fold change (FC)", "setting": "Rattus norvegicus [11]", "result": -1.407}, {"measurement": "Activity", "setting": "Rattus norvegicus [12]", "result": 25.5, "unit": "mg/dL"}, {"measurement": "fold change (FC)", "setting": "Rattus norvegicus [13]", "result": 1.352}, {"measurement": "Activity", "setting": "Rattus norvegicus [14]", "result": 28.7, "unit": "mg/dL"}, {"measurement": "fold change (FC)", "setting": "Rattus norvegicus [15]", "result": 1.252}, {"measurement": "Activity", "setting": "Rattus norvegicus [16]", "result": 2.65, "unit": "g"}, {"measurement": "Activity", "setting": "Rattus norvegicus [17]", "result": 203, "unit": "mg/dL"}, {"measurement": "fold change (FC)", "setting": "Rattus norvegicus [18]", "result": -1.663}, {"measurement": "AUC(0-t) at 24 h", "setting": "[19]", "result": 1400, "unit": "ng·h/mL"}, {"measurement": "inhibition", "setting": "Cavia porcellus", "result": 69, "unit": "%"}, {"measurement": "fold change (FC)", "setting": "Rattus norvegicus [20]", "result": 1.803}, {"measurement": "Tmax", "setting": "[21]", "result": 1.5, "unit": "h"}, {"measurement": "half-life", "setting": "[22]", "result": 6, "unit": "h"}, {"measurement": "Cmax", "setting": "[23]", "result": 4020, "unit": "ng/mL"}, {"measurement": "AUC", "setting": "Rattus norvegicus [24]", "result": 16.7, "unit": "ng·h/mL"}, {"measurement": "Activity", "setting": "Rattus norvegicus [25]", "result": 11.1, "unit": "%"}, {"measurement": "EC50", "setting": "[26]", "result": "> 10", "unit": "µM"}, {"measurement": "Activity", "setting": "[27]", "result": "inactive"}, {"measurement": "fold change (FC)", "setting": "Rattus norvegicus [28]", "result": 1.453}, {"measurement": "IC50", "setting": "Estrogen receptor", "result": "> 10", "unit": "µM"}, {"measurement": "Activity", "setting": "Rattus norvegicus [29]", "result": 5.7, "unit": "%"}, {"measurement": "Activity", "setting": "Rattus norvegicus [30]", "result": 26.3, "unit": "mg/dL"}, {"measurement": "fold change (FC)", "setting": "Rattus norvegicus [31]", "result": 1.391}, {"measurement": "Activity", "setting": "Rattus norvegicus [32]", "result": 135, "unit": "U/L"}]}
